How the values were obtained:
[1] = molecular target: nucleolin (cell-surface expressed nucleolin), human (human (endogenous in HeLa, CEM, MDA-MB-231, HuT 78 and other human cell lines)) (UniProt P19338)
T29 [2] = assay: Cell growth / multiplication (viable cell number); format: cell-based, murine; conditions: for multiplication index of cells at day 3 compared to day 0: T29 seeded at 150,000 cells/ml, 20 μM (pentavalent), triplicate, control 17.5-fold
Experimental: (§1) Human breast (MDA-MB-231, MDA-MB-435 [37]), prostate (LNCaP, from American Type Culture Collection, ATCC, Rockville, MD), and cervical (HeLa) epithelial cancer cells were grown in DMEM-glutamax medium (Gibco Invitrogen, Cergy-Pontoise, France) containing GlutaMAX™, 4.5 g/l glucose and supplemented with 10% heat-inactivated (56°C for 30 min) fetal bovine serum (FBS; Hyclone, Thermo Fisher Scientific, Inc). Human SW480 cells are derived from a grade 3-4 colon carcinoma, while the highly metastatic counterpart SW620 is established from the lymph node of a person. Both SW480 and SW620 cells (obtained from Francis Raul, IRCAD) are highly tumorigenic in nude mice. They were cultured in D-MEM, 10% FCS. The murine melanoma TIII cell line was obtained from Armelle Prévost-Blondel. Murine T29 lymphoma cells, obtained from Philippe Kastner (CNRS, Strasbourg), have been established from Ik^L/L tumors from mice carrying a hypomorphic mutation (Ik^L/L) in the Ikaros gene encoding a transcription factor that regulates lymphocyte differentiation, and acts also as a tumor suppressor in T lymphocytes. The T29 cells were cultured in RPMI medium containing 25 mM Hepes pH 7.6, 1 mM sodium pyruvate, and 10% FCS. Human leukemia cell lines, Jurkat (acute T cell leukemia), HuT 78 (cutaneous T lymphocyte), RAJI (Burkitt lymphoma), and HL60 (promyelocytic leukemia) were cultured in RPMI-1640 medium (Gibco) containing GlutaMAX™, and supplemented with 10% heat-inactivated FBS as described before. The wild-type Chinese hamster ovary cell line (CHO K1) was purchased from American Type Culture Collection (ATCC; Rockville, MD). The CHO LRP1-null cell line (CHO-13-5-1) was kindly provided by D. Strickland [47]. They were cultured in Ham's F12K medium. All cells were cultured with 10% (v/v) heat inactivated (56°C, 30 min) fetal bovine serum (FBS) (Roche Molecular Biochemicals, Indianapolis, IN) and 50 international units/mL penicillin-streptomycin (Invitrogen). Cell death was monitored conveniently by uptake of the trypan blue dye due to plasma membrane permeability of dying and/or dead cells.
Figure 7 HB-19 and related multivalent Nucant pseudopeptides induce cell death associated with internucleosomal DNA fragmentation. A. Inhibition of cell multiplication by HB-19 and related multivalent Nucant pseudopeptides. […] Cell cultures (in triplicate) were monitored for viable cell number daily for 3 days. The histograms show the mean number of cells/ml ± SD of triplicate samples. The multiplication index of cells at day 3 compared to day 0 (the day of seeding) is given at the top of histogram. At 3 days post passage of T29 cells, the cell multiplication index of cells is 17.5-fold compared to 8.9-, 7.2-, 2.2-, and 1.7-fold in the presence of treatment with HB-19, N3, N6, and N7, respectively. B. N7 inhibits T29 cell multiplication in a dose dependent manner. T29 cells seeded at 100,000/ml in 2 ml in the absence (0 μM) or presence of N7 at various concentrations 2.5, 5, 10 and 20 μM were cultured for 3 days and the number of viable cells was determined at day 1, 2, and 3 post-seeding. The ordinate gives the cell number/ml (the mean of 2 samples) in each culture at day 1, 2, and 3 post-seeding. C. Partial cleavage of surface/cytoplasmic nucleolin. T29 cells were cultured for 45 min with 0 (for control; lanes C), 2 and 10 μM of N6 before preparation of cytoplasmic (that contains both surface and cytoplasmic nucleolin) and nuclear extract and analysis by immunoblotting using rabbit polyclonal antibodies that are directed against the first 26 (panel anti-Nt Ab) and the last 16 amino acids (panel anti-Ct Ab) of human nucleolin, respectively. The nuclear extracts were analyzed by immunoblotting using anti-Nt Ab (Methods). […]

T29 [3] = assay: Cell death (trypan blue uptake); format: cell-based, murine; conditions: T29 cells, 0-20 μM, read-out: Cell death: IC50 24 hours post-passage
Experimental: as §1

[4] = test system: CHO 13 cells (LRP-1 null); assay: Midkine (MK) internalization, confocal immunofluorescence; format: cell-based, Chinese hamster; conditions: CHO 13 (LRP-1 null), pretreatment 5 μM 30 min at 20°C, then MK 0.2 μM 90 min at 37°C
Experimental: (§2) CHO K1 and CHO 13 cells (as in the Additional file 2, Figure 3S) were incubated with 0.2 µM Midkine (MK) for 90 min at 37°C or at 20°C before fixation with PFA. In sections C and E, cells were first incubated (30 min at 20°C) with 5 µM HB-19 before addition of MK (0.2 µM) and further incubation at 37°C for 90 min. […] Experimental conditions for confocal immunofluorescence microscopy were as described previously.

CHO K1 cells = assay: as above; format: cell-based, Chinese hamster; conditions: CHO K1, pretreatment 5 μM 30 min at 20°C, then MK 0.2 μM 90 min at 37°C
Experimental: as §2

[5] = test system: human breast tumor cell xenografts; conditions: nude mice; cited from earlier work
Description: (§3) The importance of cell-surface nucleolin in cancer biology was recently highlighted by studies showing that ligands of nucleolin play critical role in tumorigenesis and angiogenesis. Accordingly, we recently reported that both of these events are suppressed by targeting surface nucleolin with the HB-19 pseudopeptide, a potent antagonist that forms an irreversible complex with surface nucleolin [9, 37]. By binding to the RGG domain of nucleolin, HB-19 prevents binding of growth factors to cells, triggers calcium entry into cells, inhibits MAP kinase activation, and down-regu ...

spontaneous melanoma = conditions: RET mice, treatment for several months; cited from earlier work
Description: as §3

TIII = assay: Cell growth / proliferation (viable cell number); format: cell-based, murine; conditions: after 3 days of culture, vs untreated control, mean of at least 2 independent experiments
Experimental: as §1

melanoma TIII cell = assay: Cell adhesion; format: cell-based, murine; conditions: after 5 hours of cell seeding, vs untreated control, mean of at least 2 independent experiments
TNF-α = TNF-α production by PBMC stimulated with heat-killed Staphylococcus aureus, ELISA; format: cell-based; conditions: Homo sapiens, PBMC + HKSA 10^8 particles/ml, 1 μg/ml, 20 hours post-stimulation, triplicate, read-out: degree of inhibition of TNF-α production
Experimental: (§4) Peripheral blood mononuclear cells (PBMC) from healthy donors were prepared by Ficoll-Hypaque density gradient centrifugation and suspended in RPMI 1640 medium containing 1% (v/v) of human serum AB (from Invitrogen). PBMC (10^6 cells/0.5 ml) in the absence or presence of 10 μM of each of HB-19, N3, N6, and N7, or 1 μg/ml of dexamethasone (Sigma) were stimulated with 10^8 particles/ml of Heat-killed Staphylococcus aureus (HKSA; InvivoGen, San Diego, USA). The cultures were incubated at 37°C in a 5% CO2 incubator, and the level of TNF-α and IL-6 was monitored in the culture supernatants by ELISA (R & D Systems) at 20 hours post-stimulation.
(§5) Figure 3 HB-19 and related Nucant pseudopeptides inhibit the production of TNF-α and IL-6 by peripheral blood lymphocytes. The production of pro-inflammatory cytokines in PBMC cultures stimulated with HKSA was carried out in triplicate in the absence (Control) or presence of 10 μM of each of HB-19, N3, N6, N7, N6L, or 1 μg/ml of dexamethasone (Dex.)(Methods). The level of TNF-α (section A) and IL-6 (section B) was monitored in culture supernatants by ELISA. The data presents the mean ± SD of triplicate samples. The degree of inhibition is indicated at the top of each histogram. Statistical significance: **p < 0.01, ***p < 0.001. […]

IL-6 = IL-6 production by PBMC stimulated with heat-killed Staphylococcus aureus, ELISA; format: cell-based; conditions: Homo sapiens, PBMC + HKSA 10^8 particles/ml, 1 μg/ml, 20 hours post-stimulation, triplicate, read-out: degree of inhibition of IL-6 production
Experimental: as §4, §5

nucleolin (cell-surface expressed nucleolin), human (human (endogenous in HeLa, CEM, MDA-MB-231, HuT 78 and other human cell lines)), sequence (P19338 whole entry): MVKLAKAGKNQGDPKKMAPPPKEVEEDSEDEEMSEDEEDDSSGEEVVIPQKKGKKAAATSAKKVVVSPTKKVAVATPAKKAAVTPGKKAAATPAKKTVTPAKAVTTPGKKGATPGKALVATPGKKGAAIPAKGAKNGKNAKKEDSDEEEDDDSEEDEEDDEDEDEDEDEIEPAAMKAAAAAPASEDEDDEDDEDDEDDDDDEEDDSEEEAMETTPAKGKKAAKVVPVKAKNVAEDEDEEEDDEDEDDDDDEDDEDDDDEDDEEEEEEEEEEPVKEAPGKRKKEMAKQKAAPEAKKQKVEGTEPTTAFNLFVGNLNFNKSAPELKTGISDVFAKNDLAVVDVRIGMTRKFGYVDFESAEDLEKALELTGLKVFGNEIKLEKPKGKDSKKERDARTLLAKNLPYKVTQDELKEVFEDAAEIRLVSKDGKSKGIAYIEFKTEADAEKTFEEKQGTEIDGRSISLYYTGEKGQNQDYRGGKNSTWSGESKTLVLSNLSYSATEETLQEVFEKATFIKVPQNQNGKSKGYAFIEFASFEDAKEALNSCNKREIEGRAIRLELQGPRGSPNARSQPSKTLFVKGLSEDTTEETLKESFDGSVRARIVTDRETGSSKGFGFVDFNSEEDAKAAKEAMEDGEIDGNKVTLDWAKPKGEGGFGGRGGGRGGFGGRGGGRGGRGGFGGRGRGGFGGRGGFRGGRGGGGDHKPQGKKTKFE

Nucant 7 pseudopeptide gave an inhibition of HIV-1 LAI entry into HeLa CD4+ (LTR-LacZ) cells, β-galactosidase activity at 48 h, 0.1-0.8 μM; activity against the pentavalent N3 and HB-19 [1] of over 2 fold.

Compound Nucant 6 pseudopeptide has an inhibition of HIV-1 LAI entry into HeLa CD4+ (LTR-LacZ) cells, β-galactosidase activity at 48 h, 0.1-0.8 μM; activity against the pentavalent N3 and HB-19 [1] of over 2 fold.

In the case of “H2NLys-Lys-Lys-Gly-Pro-Lys-Glu-Lys-AhxCONH2 [HB-19, Surface nucleolin antagonist pseudopeptide presenting pentavalently the pseudo-tripeptide Lysψ(CH2N)-Pro-Arg coupled to a peptide template]”, the IC50 (T29 [2]; T29 cells, 0-20 μM, number of viable cells at 3 days post-treatment, read-out: Cell number: IC50 72 hours post-passage) is reported as 20 µM, the “multiplication index of cells at day 3 compared to day 0” value (T29 [2]) is reported as 8.9 fold and the IC50 (T29 [3]) is reported as over 20 µM. For the same compound, the MK entry [4] was “not affected”, the MK entry (CHO K1 cells) was “prevents MK entry” and the “progression of established human breast tumor cell xenografts” value [5] was “markedly suppresses the progression”. The “onset and frequency of spontaneous melanoma” value (spontaneous melanoma) was “delays significantly” and the “toxicity to normal tissue” value (spontaneous melanoma) was “no toxicity”.

In the case of Nucant 6L pseudopeptide, the inhibition of HIV-1 LAI entry into HeLa CD4+ (LTR-LacZ) cells, β-galactosidase activity at 48 h, 0.05-0.8 μM; activity against the pentavalent N3 and HB-19 [1] is reported as over 4 fold.

In the case of “Ac-Lys-Aib-Gly-Lys-Aib-Gly-Lys-Aib-Gly-Lys-Aib-Gly-Lys-Aib-Gly-CONH2 [Nucant N3, Presents pentavalently the pseudo-tripeptide Lysψ(CH2N)-Pro-Arg coupled to the polypeptide template containing Aib]”, the “% Inhibition of cell Proliferation” value (TIII; 5 μM) is reported as “No effect”, the “% Inhibition of cell Proliferation” value (TIII; 10 μM) is reported as 10% and the “% Inhibition of cell Proliferation” value (TIII; 20 μM) is reported as 36%. The “multiplication index of cells at day 3 compared to day 0” value (T29 [2]) was 7.2 fold, the IC50 (T29 [3]) was over 20 µM and the “% Inhibition of cell Adhesion” value (melanoma TIII cell; 5 μM) was “No effect”. For the same compound, the “% Inhibition of cell Adhesion” value (melanoma TIII cell; 10 μM) was 15% and the “% Inhibition of cell Adhesion” value (melanoma TIII cell; 20 μM) was 24%.

C[C@@H]1C[C@H]2[C@@H]3CCC4=CC(=O)C=C[C@]4(C)[C@@]3(F)[C@@H](O)C[C@]2(C)[C@@]1(O)C(=O)CO [Dex., dexamethasone] gave an inhibition at 1 µg/mL (TNF-α) of 61% and an inhibition at 1 µg/mL (IL-6) of 62%.

Source: article PMC3199867, “Targeting surface nucleolin with multivalent HB-19 and related Nucant pseudopeptides results in distinct inhibitory mechanisms depending on the malignant tumor cell type” (BMC Cancer, 2011)
